Assay results taken from ChEMBL document CHEMBL5338823, “Discovery of Novel 5,6-Dihydro-1,2,4-triazine Derivatives as Efficacious Glucagon-Like Peptide-1 Receptor Agonists” (J Med Chem, 2023).

Assays:
[1] = target: Glucagon-like peptide 1 receptor (Homo sapiens, UniProt P43220); assay: Agonist activity at N-terminal HA-tagged human GLP-1R expressed in HEK293 cells assessed as effect on intracellular cAMP accumulation incubated for 30 mins by LANCA ultra cAMP assay; format: functional, cell-based
[2] = Stability in rat liver microsomes assessed as half-life at 1 uM measured upto 60 mins in the presence of NADPH by LC-MS/MS analysis; format: ADME, Microsome
[3] = Stability in mouse liver microsomes assessed as intrinsic clearance at 1 uM measured upto 60 mins in the presence of NADPH by LC-MS/MS analysis; format: ADME, Microsome; details: 1 h
[4] = Stability in mouse liver microsomes assessed as half-life at 1 uM measured upto 60 mins in the presence of NADPH by LC-MS/MS analysis; format: ADME, Microsome
[5] = Stability in rat liver microsomes assessed as intrinsic clearance at 1 uM measured upto 60 mins in the presence of NADPH by LC-MS/MS analysis; format: ADME, Microsome; details: 1 h
[6] = Stability in human liver microsomes assessed as half-life at 1 uM measured upto 60 mins in the presence of NADPH by LC-MS/MS analysis; format: ADME, Microsome
hERG (KCNH2) [7] = target: T1, hERG (KCNH2) (Homo sapiens, UniProt Q12809); assay: Inhibition of hERG at 40 uM relative to control
[8] = Stability in human liver microsomes assessed as intrinsic clearance at 1 uM measured upto 60 mins in the presence of NADPH by LC-MS/MS analysis; format: ADME, Microsome; details: 1 h
[9] = target: Voltage-gated inwardly rectifying potassium channel KCNH2 (Homo sapiens, UniProt Q12809); assay: Inhibition of hERG
hERG (KCNH2) [10] = target: T1, hERG (KCNH2); assay: Inhibition of hERG at 3 uM relative to control

Chain of Glucagon-like peptide 1 receptor (P43220 whole entry): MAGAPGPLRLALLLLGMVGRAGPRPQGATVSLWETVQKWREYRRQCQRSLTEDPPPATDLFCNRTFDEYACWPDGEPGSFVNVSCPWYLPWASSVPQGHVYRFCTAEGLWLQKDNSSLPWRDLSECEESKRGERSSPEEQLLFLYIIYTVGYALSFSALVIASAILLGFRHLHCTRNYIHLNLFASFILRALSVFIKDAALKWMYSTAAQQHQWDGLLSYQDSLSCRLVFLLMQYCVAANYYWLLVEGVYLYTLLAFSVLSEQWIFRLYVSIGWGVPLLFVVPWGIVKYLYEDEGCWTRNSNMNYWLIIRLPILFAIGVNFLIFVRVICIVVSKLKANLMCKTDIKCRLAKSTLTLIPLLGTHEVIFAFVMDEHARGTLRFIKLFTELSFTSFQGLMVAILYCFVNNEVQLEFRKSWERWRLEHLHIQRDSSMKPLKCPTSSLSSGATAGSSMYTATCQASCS
T1 sequence (Q12809 whole entry): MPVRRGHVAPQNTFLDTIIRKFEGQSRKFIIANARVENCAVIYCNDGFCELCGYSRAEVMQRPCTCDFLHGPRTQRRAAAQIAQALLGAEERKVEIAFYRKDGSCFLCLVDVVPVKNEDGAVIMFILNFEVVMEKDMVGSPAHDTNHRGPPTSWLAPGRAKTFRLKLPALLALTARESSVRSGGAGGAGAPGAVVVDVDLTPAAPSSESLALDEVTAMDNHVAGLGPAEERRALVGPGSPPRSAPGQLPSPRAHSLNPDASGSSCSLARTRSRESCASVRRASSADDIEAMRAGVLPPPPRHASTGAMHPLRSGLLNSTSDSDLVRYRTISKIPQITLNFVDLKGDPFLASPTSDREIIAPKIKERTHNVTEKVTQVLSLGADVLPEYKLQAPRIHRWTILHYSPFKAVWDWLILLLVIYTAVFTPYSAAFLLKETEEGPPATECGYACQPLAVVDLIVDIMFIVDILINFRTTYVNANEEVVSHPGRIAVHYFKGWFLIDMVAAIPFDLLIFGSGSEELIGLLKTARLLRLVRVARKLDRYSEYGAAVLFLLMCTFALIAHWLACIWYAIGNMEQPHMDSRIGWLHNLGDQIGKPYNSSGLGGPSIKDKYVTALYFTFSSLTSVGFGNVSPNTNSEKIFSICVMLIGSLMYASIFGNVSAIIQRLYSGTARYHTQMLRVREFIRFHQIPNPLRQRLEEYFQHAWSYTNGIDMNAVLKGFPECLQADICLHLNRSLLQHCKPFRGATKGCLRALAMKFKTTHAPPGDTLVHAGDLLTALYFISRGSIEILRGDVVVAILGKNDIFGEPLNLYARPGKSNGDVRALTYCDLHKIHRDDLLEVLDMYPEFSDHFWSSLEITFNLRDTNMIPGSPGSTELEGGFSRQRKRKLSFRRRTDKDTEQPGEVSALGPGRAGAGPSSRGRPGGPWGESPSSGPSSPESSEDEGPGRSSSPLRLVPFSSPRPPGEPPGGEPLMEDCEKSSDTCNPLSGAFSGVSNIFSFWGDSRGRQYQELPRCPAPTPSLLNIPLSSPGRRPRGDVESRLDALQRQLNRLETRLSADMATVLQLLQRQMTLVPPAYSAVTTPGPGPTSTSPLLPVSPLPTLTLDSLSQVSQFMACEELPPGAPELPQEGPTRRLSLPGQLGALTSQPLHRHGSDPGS
Chain of Voltage-gated inwardly rectifying potassium channel KCNH2 (Q12809 whole entry): as above

EC50 [1]	half-life at 1 µM [2]	CLH [3]	half-life at 1 µM [4]	CLH [5]	half-life at 1 µM [6]	CLH [8]	Compound	also measured
0.7 nM	–	–	–	–	–	–	N#Cc1ccc(COc2cccc(OC3CCN(Cc4nc5ccc(C(=O)O)cc5n4C[C@@H]4CCO4)CC3)n2)c(F)c1	–
> 10000 nM	–	–	–	–	–	–	N#Cc1ccc(COc2cccc(N3C[C@H]4CN(Cc5nc6ccc(C(=O)O)cc6n5C[C@@H]5CCO5)C[C@H]4C3)n2)c(F)c1	–
153 nM	–	–	–	–	–	–	N#Cc1ccc(COc2cccc(N3CCC(NCc4nc5ccc(C(=O)O)cc5n4C[C@@H]4CCO4)CC3)n2)c(F)c1	–
> 10000 nM	–	–	–	–	–	–	O=C(O)c1ccc2nc(Cn3ccc(-c4cccc(OCc5ccc(Cl)cc5F)n4)nc3=O)n(C[C@@H]3CCO3)c2c1	–

More lines, now with the values behind:

Compound	EC50 [1]	half-life at 1 µM [2]	CLH [3]	half-life at 1 µM [4]	CLH [5]	half-life at 1 µM [6]	CLH [8]	also measured
O=C(O)c1cc(F)c2nc(CN3CCN(c4cccc(OCc5ccc(Cl)c6c5OCC6)n4)C=N3)n(C[C@@H]3CCO3)c2c1	–	36 min	67 mL/min/g	31 min	59 mL/min/g	90 min	23 mL/min/g	inhibition at 40 µM (hERG (KCNH2) [7]): 51%; IC50 [9]: 50 nM
O=C(O)c1cc(F)c2nc(CN3CCN(c4cccc(OCc5ccc(Cl)c6cc(F)oc56)n4)C=N3)n(C[C@@H]3CCO3)c2c1	–	95 min	21 mL/min/g	103 min	22 mL/min/g	166 min	13 mL/min/g	–
COc1cc(Cl)ccc1COc1cccc(N2C=NN(Cc3nc4c(F)cc(C(=O)O)cc4n3C[C@@H]3CCO3)CC2)n1	–	47 min	49 mL/min/g	43 min	45 mL/min/g	100 min	21 mL/min/g	inhibition at 40 µM (hERG (KCNH2) [7]): 44%; IC50 [9]: > 40000 nM
COc1cc(N)c(Cl)cc1C(=O)N[C@H]1CCN(CCCOc2ccc(F)cc2)C[C@H]1OC [REL-CISAPRIDE]	–	–	–	–	–	–	–	inhibition at 3 µM (hERG (KCNH2) [10]): 92%
